Patent publication EP0321967A2, “Compounds active on the cardiovascular system” (ZAMBON GROUP S.p.A., priority 1987, dated 1989)

Tests used:
D₁ receptor = molecular target: T1, D₁ receptor (Rattus norvegicus, UniProt P18901); assay: Dopaminergic activity: receptor binding on isolated membranes of rat striated muscle, D1; conditions: read-out: IC₅₀
T1 construct: from tissue; host or cells: isolated membranes of rat striated muscle (so in the source); probably striatum is meant
Description: (§1) The dopaminergic activity of compound A, for example, has been evaluated as percentage of receptor binding on isolated membranes of rat striated muscle; the IC₅₀ resulted to be 0.3 µM for D₂ receptor and 3 µM for D₁ receptor.

[1] = system: spontaneously hypertensive rat; assay: Systemic arterial pressure decrease after intravenous administration in spontaneously hypertensive rat; assay type: in vivo; conditions: in comparison with the basal value
Text: The compounds object of the present invention after administration by intravenous route in spontaneously hypertensive rat at the dose of 0.033-0.53 µm/kg induce a meaningful systemic arterial pressure decrease comprised between 20 and 90 mmHg.

D₂ receptor = molecular target: T2, D₂ receptor (Rattus norvegicus, UniProt P61169); assay: Dopaminergic activity: receptor binding on isolated membranes of rat striated muscle, D2; conditions: read-out: IC₅₀
T2 construct: from tissue; host or cells: isolated membranes of rat striated muscle (so in the source); probably striatum is meant
Description: as §1

α₁ = assay: α1-antagonistic effect on phenylephrine-induced vasoconstriction of rabbit isolated aorta; assay type: cell-based; conditions: antagonism of vasoconstriction induced by phenylephrine (α₁-agonist)
Text: The α₁-antagonistic effect has been evaluated as antagonistic effect (pA₂) on vasoconstriction induced by phenylephrine (α₁-agonist) on rabbit isolated aorta. For compound A the obtained pA₂ value was 7.7.

T2 sequence (P61169 whole entry): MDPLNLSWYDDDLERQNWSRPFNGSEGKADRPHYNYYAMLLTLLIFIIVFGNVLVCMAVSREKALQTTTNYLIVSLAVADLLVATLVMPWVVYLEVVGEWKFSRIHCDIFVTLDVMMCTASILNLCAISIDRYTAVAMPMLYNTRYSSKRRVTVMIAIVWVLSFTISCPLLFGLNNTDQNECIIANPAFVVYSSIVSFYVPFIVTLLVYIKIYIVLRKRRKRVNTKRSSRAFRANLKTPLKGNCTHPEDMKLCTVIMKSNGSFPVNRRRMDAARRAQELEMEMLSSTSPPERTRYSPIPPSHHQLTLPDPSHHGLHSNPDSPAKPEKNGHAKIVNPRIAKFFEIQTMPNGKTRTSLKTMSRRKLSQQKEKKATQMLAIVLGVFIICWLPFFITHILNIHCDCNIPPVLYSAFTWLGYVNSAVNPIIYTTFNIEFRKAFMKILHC
T1 sequence (P18901 whole entry): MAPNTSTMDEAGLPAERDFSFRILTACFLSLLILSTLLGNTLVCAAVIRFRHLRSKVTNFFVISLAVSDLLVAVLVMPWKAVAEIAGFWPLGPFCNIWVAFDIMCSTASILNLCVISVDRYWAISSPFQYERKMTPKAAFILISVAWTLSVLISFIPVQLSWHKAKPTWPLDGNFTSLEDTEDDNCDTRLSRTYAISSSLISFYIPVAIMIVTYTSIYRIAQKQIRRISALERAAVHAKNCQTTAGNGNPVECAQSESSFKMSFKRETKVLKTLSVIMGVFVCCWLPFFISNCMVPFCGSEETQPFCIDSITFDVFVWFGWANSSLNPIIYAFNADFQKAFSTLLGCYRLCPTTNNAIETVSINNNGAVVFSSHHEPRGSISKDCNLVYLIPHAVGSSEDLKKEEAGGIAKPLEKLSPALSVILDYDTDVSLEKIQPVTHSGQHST

Compound: CCCN(CCOc1ccccc1OC)CCc1ccc(O)c(O)c1.Cl [compound A, N-[2-(2-methoxyphenoxy)ethyl]-N-propyl-dopamine hydrochloride]
- IC50 (D₁ receptor): 3 µM
- reduction of systemic arterial pressure ([1]; dose 12.5 µg/kg): 51 mmHg
- reduction of systemic arterial pressure ([1]; dose 200 µg/kg): 89 mmHg
- IC50 (D₂ receptor): 300 nM
- pA₂ (α₁): 7.7
